Values quoted from earlier work in patent publication US20040101542A1, “Skin care composition with retinyl ester as vitamin a propionate retinyl palmitate d-alpha tocopherol rice amino acids and liposomes and method of application” (priority 2003, published 2004).

Details: at 24 hours

CC1=C(/C=C/C(C)=C/C=C/C(C)=C/C(=O)O)C(C)(C)CCC1 [retinoic acid]
uptake and distribution in the deeper skin strata, liposomal formulations versus solutions or emulsions: 3-4 times higher
